Where a SMILES comes first, the peptide text is derived from it. Bridges are numbered along the chain shown (N, C = ends).
Test system: VEGF
Experiment: phage spot ELISA on VEGF
Type: binding
Conditions: for S/N: phage spot ELISA signal/noise; for S/N / ELISA: S3 Table sheet VEGF; for ELISA: phage spot ELISA signal
From the text: To determine the performance of the libraries for ligand discovery we chose a panel of eight protein targets, which have no structural homology and a wide mass range (Fig 7C). We screened these eight targets with solution panning strategy and two additional plate panning for CD8α/β and CD28, thus ten panning campaigns in total. We consider clones showing spot phage ELISA signal > 0.3 and signal/noise ratio > 2 as positive hits. At least one binding hit was discovered for nine out of the ten panning campaigns, surpassing the success rate of the best DCP scaffolds reported previously. We also obtained the NGS data for these screening and the ranking of clones for their enrichment along the rounds of screening was analyzed and considered the top-ranking clones as potential hits. Based on their sequence diversity we selected 16 potential hits spanning five protein targets for peptide synthesis in their linear form. Seven of these are hits with positive phage ELISA signal and nine were selected based on NGS ranking without spot ELISA available. Subsequently, we conducted in vitro folding experiments on these peptides in various buffers. We observed a strong propensity for spontaneous folding regardless of the buffer condition. All HCP hits tested successfully folded into three-disulfide-containing product within two days in a universal buffer system (PBS, pH 7.4, 50% DMSO) without the need for a redox pair, as shown in Fig 8A. The binding of these folded peptides to their respective target proteins was confirmed using SPR (Table 4 and S1 Data) and binding kinetics are exemplified by the high-affinity peptide 5ji4-CRD7-2 (see Fig 8B). Among seven selected ELISA-positive hits, all of them were successfully synthesized and in vitro folded with three disulfide bonds and five were proven to be validated binders by SPR (Table 4). Nine peptides selected from the NGS ranking were synthesized and folded with the expected number of disulfide bonds and five of them bound to their target with affinities in the μM range as determined by SPR (Table 4). In general, binding affinities for these SPR-validated initial hits are weak, with Kd values in the micromolar range and fast on- and off-rates. There are two exceptions with binding affinities in the nanomolar range.
The 5ji4 libraries were constructed following the Kunkel mutagenesis method and the solution panning protocol was followed as previously described. After four to five rounds of binding selection, while eluted pool was subjected to NGS analysis, individual phage clones were also picked and analyzed with phage spot ELISA. Positive clones were subjected to SANGER sequencing.

Compound	ELISA signal (phage spot ELISA of the clone, positive hit: signal > 0.3 and signal/noise > 2)	ELISA s/n (phage spot ELISA signal/noise ratio)	S/N	ELISA
CC(C)C[C@@H]1NC(=O)[C@H](CCCNC(=N)N)NC(=O)[C@H](CCCCN)NC(=O)[C@@H]2CSSC[C@H](NC(=O)[C@H](CCC(=O)O)NC(=O)[C@@H](NC(=O)[C@@H]3CCCN3)CSSC[C@@H](C(=O)NCC(=O)O)NC(=O)[C@H](Cc3c[nH]cn3)NC(=O)[C@H](C(C)C)NC(=O)[C@H](CCCNC(=N)N)NC(=O)[C@@H]3CSSC[C@H](NC1=O)C(=O)N[C@@H](Cc1c[nH]c4ccccc14)C(=O)NCC(=O)N[C@@H](Cc1ccccc1)C(=O)NCC(=O)N[C@@H](CCC(N)=O)C(=O)N[C@@H](CO)C(=O)N[C@@H](CC(=O)O)C(=O)N3)C(=O)N[C@@H](CC(=O)O)C(=O)N[C@@H](C(C)C)C(=O)N[C@@H](CC(N)=O)C(=O)N[C@@H](C(C)C)C(=O)N[C@@H](CCC(=O)O)C(=O)N[C@@H]([C@@H](C)O)C(=O)N[C@@H](Cc1ccc(O)cc1)C(=O)N[C@@H]([C@@H](C)O)C(=O)N[C@@H](C(C)C)C(=O)N[C@@H](CO)C(=O)N[C@@H](CO)C(=O)N[C@@H](CO)C(=O)N[C@@H](CCC(=O)O)C(=O)N[C@@H](CCC(=O)O)C(=O)N2 [5ji4-VEGF-3] (H-PCECDVNVETYTVSSSEECKRLCWGFGQSDCRVHCG-OH; disulfide 2-35, 4-19, 23-31)	3.07	32.18		
PCECDVNVETYTVSSSEECKRLCWGFGQSDCRVHCG [VEGF clone 26, phage clone, 5JI4 library, VEGF panning]			30.2373	3.568
PCECFFNAVKVGWSSSEECERLCRKLGVTNCRVHCG [VEGF clone 13, phage clone, 5JI4 library, VEGF panning]			35.8857	3.768
PCECFILGMAVGQSSSEECERLCRKLGVTNCRVHCG [VEGF clone 23, phage clone, 5JI4 library, VEGF panning]			29.8545	3.284
PCECFMMEVKVGTGSSEECERLCRKLGVTNCRVHCG [VEGF clone 14, phage clone, 5JI4 library, VEGF panning]			42.5632	3.703
PCECFMYDILVGLASSEECERLCRKLGVTNCRVHCG [VEGF clone 2, phage clone, 5JI4 library, VEGF panning]			30.9	6.00
PCECFMYGVYVGHSSSEACERLCRKLGVTNCRVHCG [VEGF clone 9, phage clone, 5JI4 library, VEGF panning]			39.95	3.995
PCECHFXGVHVGRSSSEECERLCRKLGVTNCRVHCG [VEGF clone 12, phage clone, 5JI4 library, VEGF panning]			15.0395	3.805
PCECIILNVVVGESSSEECERLCRKLGVTNCRVHCG [VEGF clone 4, phage clone, 5JI4 library, VEGF panning]			2.9	4.32
PCECITKWSDWGFSSSEECERLCRKLGVTNCRVHCG [VEGF clone 24, phage clone, 5JI4 library, VEGF panning]			9.024	0.767
PCECIXXDSFVGKSSSEECERLCRKLGVTNCRVHCG [VEGF clone 25, phage clone, 5JI4 library, VEGF panning]			3.092	0.269
PCECLMYGHHVGSASSEECERLCRKLGVTNCRVHCG [VEGF clone 19, phage clone, 5JI4 library, VEGF panning]			36.6559	3.409
PCECLMYRVXVGHSSSEACERLCRKLGVTNCRVHCG [VEGF clone 3, phage clone, 5JI4 library, VEGF panning]			42.6	4.34
PCECMFHGVPVGFSSSEECERLCRKLGVTNCRVHCG [VEGF clone 8, phage clone, 5JI4 library, VEGF panning]			37.2	4.06
PCECPRWWSHDGGYSSEECERLCRKLGVTNCRVHCG [VEGF clone 11, phage clone, 5JI4 library, VEGF panning]			38.9	3.89
